Measured values as given in the supplement of paper PMC10307832.

Legend:
Assay in all cases: relative viability (nuclei count vs DMSO), 5 days (fraction); higher = more cells survive
[1] = compound: CN1CCN(c2ccc3nc(-c4c(N)c5c(F)cccc5[nH]c4=O)[nH]c3c2)CC1 [Dovitinib] + COc1cc2c(Oc3ccc(NC(=O)C4(C(=O)Nc5ccc(F)cc5)CC4)cc3F)ccnc2cc1OCCCN1CCOCC1 [Foretinib] (partner 0.25 µM)
Summary of the method: (§1)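 Nuclei were stained with Hoechst during a one-step fixation (final 0.05% Triton X-100, 1% formaldehyde, 1 ug/ml Hoechst) carried out 5 days after dosing, then counted on 4× images. The cells, lung cancer lines in 1536-well plates, had been dosed by pin tool the day after seeding with one drug alone or a fixed anchor-drug dose plus five library-drug doses (not always all listed) in √10 steps. Relative viability is the nuclei count in treated wells divided by that in vehicle wells, and each value is the median of duplicate plates.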

[2] = compound: CN1CCN(c2ccc3nc(-c4c(N)c5c(F)cccc5[nH]c4=O)[nH]c3c2)CC1 [Dovitinib] + Cc1nc(NC(=O)N2CCC[C@H]2C(N)=O)sc1-c1ccnc(C(C)(C)C(F)(F)F)c1 [Alpelisib] (partner 2 µM)
Summary of the method: as §1

[3] = compound: CN1CCN(c2ccc3nc(-c4c(N)c5c(F)cccc5[nH]c4=O)[nH]c3c2)CC1 [Dovitinib] + Nc1nc2[nH]cc(CCc3ccc(C(=O)N[C@@H](CCC(=O)O)C(=O)O)cc3)c2c(=O)[nH]1 [Pemetrexed] (partner 0.2 µM)
Summary of the method: as §1

[4] = compound: CN1CCN(c2ccc3nc(-c4c(N)c5c(F)cccc5[nH]c4=O)[nH]c3c2)CC1 [Dovitinib] + O=C(c1cc(Cc2n[nH]c(=O)c3ccccc23)ccc1F)N1CCN(C(=O)C2CC2)CC1 [Olaparib] (partner 8 µM)
Summary of the method: as §1

Row | Cell Line | relative viability ([1]; first compound 0.02 µM) | relative viability ([1]; first compound 0.06325 µM) | relative viability ([1]; first compound 0.2 µM) | relative viability ([1]; first compound 0.6325 µM) | relative viability ([1]; first compound 2 µM) | relative viability ([2]; first compound 0.02 µM) | relative viability ([2]; first compound 0.06325 µM) | relative viability ([2]; first compound 0.2 µM) | relative viability ([2]; first compound 0.6325 µM) | relative viability ([2]; first compound 2 µM) | relative viability ([3]; first compound 0.02 µM) | relative viability ([3]; first compound 0.06325 µM) | relative viability ([3]; first compound 0.2 µM) | relative viability ([3]; first compound 0.6325 µM) | relative viability ([3]; first compound 2 µM) | relative viability ([4]; first compound 0.02 µM) | relative viability ([4]; first compound 0.06325 µM) | relative viability ([4]; first compound 0.2 µM) | relative viability ([4]; first compound 0.6325 µM) | relative viability ([4]; first compound 2 µM)
1 | NCI-H1975 | 1.01 | 0.962 | 0.927 | 0.989 | 0.975 | 0.625 | 0.685 | 0.603 | 0.604 | 0.547 | 0.305 | 0.286 | 0.268 | 0.294 | 0.294 | 0.733 | 0.912 | 0.671 | 0.792 | 0.74
2 | UMC-11 | 1.05 | 1.04 | 1.01 | 1 | 1.05 | 0.958 | 0.941 | 0.892 | 0.82 | 0.961 | 0.808 | 0.787 | 0.838 | 0.876 | 0.822 | 0.334 | 0.352 | 0.383 | 0.387 | 0.435
3 | A-427 | 1.17 | 0.996 | 1.02 | 1.07 | 0.956 | 0.979 | 1.03 | 1.07 | 0.938 | 1.03 | 0.907 | 0.988 | 1.04 | 0.967 | 1.06 | 0.711 | 0.641 | 0.773 | 0.797 | 0.822
4 | LCLC-97TM1 | 0.986 | 0.974 | 1.01 | 0.922 | 1.01 | 0.222 | 0.23 | 0.171 | 0.247 | 0.276 | 0.16 | 0.155 | 0.198 | 0.184 | 0.163 | 0.371 | 0.443 | 0.369 | 0.364 | 0.255
5 | HCC-15 | 1.03 | 0.971 | 1 | 1.06 | 1.03 | 0.916 | 0.868 | 0.915 | 0.848 | 0.939 | 0.225 | 0.228 | 0.213 | 0.231 | 0.216 | 0.687 | 0.703 | 0.71 | 0.696 | 0.726
6 | NCI-H647 | 1.23 | 1.15 | 1.39 | 1.17 | 1.26 | 0.966 | 1.15 | 1.34 | 1.19 | 0.961 | 0.194 | 0.189 | 0.154 | 0.191 | 0.177 | 0.578 | 0.538 | 0.5 | 0.418 | 0.675
7 | SW 1573 | 0.837 | 0.913 | 0.877 | 0.88 | 0.885 | 0.785 | 0.798 | 0.703 | 0.657 | 0.753 | 0.853 | 0.859 | 0.858 | 0.868 | 0.861 | 0.512 | 0.525 | 0.593 | 0.446 | 0.507
8 | NCI-H1651 | 0.899 | 0.792 | 0.836 | 0.796 | 0.721 | 0.816 | 1.06 | 0.867 | 0.898 | 0.862 | 0.553 | 0.544 | 0.563 | 0.64 | 0.544 | 0.175 | 0.187 | 0.167 | 0.191 | 0.163
9 | NCI-H2023 | 0.707 | 0.935 | 0.788 | 0.868 | 0.857 | 0.558 | 0.574 | 0.606 | 0.57 | 0.523 | 0.205 | 0.232 | 0.238 | 0.216 | 0.19 | 0.454 | 0.487 | 0.541 | 0.432 | 0.482
10 | COR-L 105 | 0.921 | 0.993 | 1.2 | 1.14 | 1.31 | 0.938 | 0.986 | 1.01 | 0.84 | 0.958 | 1.23 | 1.09 | 1.05 | 1 | 0.92 | 0.691 | 0.712 | 0.72 | 0.765 | 0.638
11 | NCI-H1734 | 0.9 | 0.813 | 0.834 | 0.735 | 0.834 | 0.711 | 0.697 | 0.675 | 0.626 | 0.641 | 0.443 | 0.442 | 0.414 | 0.403 | 0.418 | 0.66 | 0.648 | 0.547 | 0.605 | 0.678
12 | NCI-H3122 | 1.06 | 0.963 | 0.875 | 0.985 | 0.853 | 0.703 | 0.681 | 0.8 | 0.82 | 0.839 | 0.194 | 0.207 | 0.199 | 0.186 | 0.189 | 0.623 | 0.619 | 0.663 | 0.56 | 0.536
13 | CAL-12T | 0.986 | 1.12 | 1.07 | 1.1 | 1.12 | 1.16 | 1.06 | 1.18 | 1.37 | 1.15 | 1.11 | 1.16 | 1.21 | 1.24 | 1.17 | 0.69 | 0.434 | 0.733 | 0.61 | 0.713
14 | HCC-78 | 0.632 | 0.528 | 0.535 | 0.599 | 0.623 | 0.422 | – | 0.384 | 0.364 | 0.316 | 0.914 | 0.934 | 0.931 | 0.889 | 0.865 | 0.887 | 0.665 | 1.05 | 0.777 | 0.888
15 | NCI-H2085 | 1.01 | 1.16 | 1.01 | 0.961 | 1.01 | 1.05 | 0.987 | 0.88 | 0.936 | 1.03 | 0.941 | 0.991 | 1.03 | 0.871 | 0.958 | 0.731 | 0.828 | 0.723 | 0.762 | 0.758
